The values below come from US20240409585A1, “MACROCYCLIC IMMUNOMODULATORS” (priority 2021, published 2024).

Molecules are shown by their SMILES. Numbered stars: 1 amine (or outer) side, 2 acyl side, 3 side chain; on linkers, the order of the positions; unused ones are H or OH. Bridge positions count the residues as written; N and C are the ends. Square brackets hold non-standard residues; d marks the D form. Peptide text beside a SMILES is read from it. * marks the point of attachment. ξ: configuration not given here. X21 = CN(C)P(=O)(Oc1ccc(C[C@H](N[*:1])C(=O)[*:2])cc1)N(C)C; Phe(4-COOH) = N[C@@H](Cc1ccc(C(=O)O)cc1)C(=O)O; Phe(4-CH2NH2) = NCc1ccc(C[C@H](N)C(=O)O)cc1; Bip = N[C@@H](Cc1ccc(-c2ccccc2)cc1)C(=O)O; Phe(3-Me) = Cc1cccc(C[C@H](N)C(=O)O)c1; Cyclopropanecarbonyl = O=C(C1CC1)*; 4Pal = N[C@@H](Cc1ccncc1)C(=O)O; Cha = N[C@@H](CC1CCCCC1)C(=O)O; Cit = NC(=O)NCCC[C@H](N)C(=O)O; Ile(3ξ) = CCC(C)[C@H](N)C(=O)O; Thr(3ξ) = CC(O)[C@H](N)C(=O)O; NMeNle = CCCC[C@H](NC)C(=O)O; ξCha = NC(CC1CCCCC1)C(=O)O; Carboxymethyl = O=C(O)C*; NMeA = CN[C@@H](C)C(=O)O; Orn = NCCC[C@H](N)C(=O)O; Dab = NCC[C@H](N)C(=O)O; Dap = NC[C@H](N)C(=O)O

T1 sequence (Q15116 25-288): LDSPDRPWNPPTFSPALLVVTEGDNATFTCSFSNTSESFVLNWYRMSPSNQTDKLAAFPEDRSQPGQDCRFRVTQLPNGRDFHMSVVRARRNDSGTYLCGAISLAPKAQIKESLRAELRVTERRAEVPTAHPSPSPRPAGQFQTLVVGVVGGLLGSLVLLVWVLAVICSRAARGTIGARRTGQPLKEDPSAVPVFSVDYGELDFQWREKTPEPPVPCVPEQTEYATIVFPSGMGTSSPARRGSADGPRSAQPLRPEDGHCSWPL

The first assay addresses T1, PE-labeled human PD-L1-Ig binding to Jurkat cell line over-expressing human PD-1 (Jurkat-PD-1) (Homo sapiens, UniProt Q15116).
T1 construct: expressed in transfected cells; host or cells: Jurkat
Kind of assay: Jurkat-PD-1 Cell Binding High-Content Screening Assay (CBA): Method 1. To be noted: Jurkat HPDL1 PD1 IC50 (uM) (Method 1), Jurkat-hPD-1 cells, PE-labeled PD-L1-Ig 20 nM final.
Take `CC(C)C[C@@H]1NC(=O)[C@H](Cc2c[nH]c3ccccc23)NC(=O)[C@H](CC(=O)O)NC(=O)[C@H](Cc2ccc(OP(=O)(N(C)C)N(C)C)cc2)NC(=O)[C@H](Cc2ccccc2)NC(=O)CSC[C@@H](C(=O)N[C@@H](C)C(N)=O)NC(=O)[C@H](CO)NC(=O)[C@H](C(C)C)NC(=O)[C@H](CC(C)C)NC(=O)[C@H](CC(N)=O)NC(=O)[C@@H](C)NC(=O)[C@H](C)N(C)C(=O)[C@H](C(C)C)NC(=O)[C@H](Cc2ccc(-c3ccccc3)cc2)NC1=O` [Compound 1764] ({CH2CO}-F[X21]DWL[Bip]V[NMeA][dA]NLVSCA-NH2; thioether N-14): the IC50 turned out to be 0.04 µM.

Still in this assay, the particulars now being: Jurkat-hPD-1 cells, PE-labeled PD-L1-Ig 20 nM final; read-out: Jurkat HPDL1 PD1 IC50 (uM) (Method 1).
With `CCCC[C@H]1C(=O)N[C@@H](Cc2ccc(C(=O)O)cc2)C(=O)N[C@@H](CC(=O)O)C(=O)N[C@@H](Cc2c[nH]c3ccccc23)C(=O)N[C@@H](C(C)C)C(=O)N[C@@H](Cc2ccc(-c3ccccc3)cc2)C(=O)N[C@@H](C(C)O)C(=O)N(C)[C@@H](C)C(=O)N[C@H](CC(C)C)C(=O)N[C@@H](CCN)C(=O)N[C@@H](CC2CCCCC2)C(=O)N[C@@H](C(C)C)C(=O)N[C@@H](C(C)O)C(=O)N[C@H](C(=O)N[C@@H](CCN)C(N)=O)CSCC(=O)N1C` (stereo partly drawn) [Compound 2206] ({CH2CO}-[NMeNle][Phe(4-COOH)]DWV[Bip][Thr(3ξ)][NMeA][dL][Dab][Cha]V[Thr(3ξ)]C[Dab]-NH2; thioether N-14), the half-inhibitory concentration (IC50) was determined as 0.04 µM.

As for `CC(C)C[C@@H]1NC(=O)[C@H](CCN)NC(=O)[C@@H](CC(C)C)NC(=O)[C@H](C)N(C)C(=O)[C@H](CCCNC(=N)N)NC(=O)[C@H](Cc2ccc(-c3ccccc3)cc2)NC(=O)[C@H](C(C)C)NC(=O)[C@H](Cc2c[nH]c3ccccc23)NC(=O)[C@H](CC(=O)O)NC(=O)[C@H](Cc2ccc(O)cc2)NC(=O)[C@H](CN)NC(=O)CSC[C@@H](C(=O)N[C@@H](C)C(N)=O)NC(=O)[C@H]([C@@H](C)O)NC(=O)[C@H](C(C)C)NC1=O` [Compound 1350] ({CH2CO}-[Dap]YDWV[Bip]R[NMeA][dL][Dab]LVTCA-NH2; thioether N-14), the IC50 turned out to be 0.03 µM.

With `CC(C)C[C@@H]1NC(=O)[C@H](CCN)NC(=O)[C@@H](CC(C)C)NC(=O)[C@H]2CCCN2C(=O)[C@H](C(C)C)NC(=O)[C@H](Cc2ccc(-c3ccccc3)cc2)NC(=O)[C@H](C(C)C)NC(=O)[C@H](Cc2c[nH]c3ccccc23)NC(=O)[C@H](CC(=O)O)NC(=O)[C@H](Cc2ccc(O)cc2)NC(=O)[C@H](CC(N)=O)NC(=O)CSC[C@@H](C(=O)N[C@@H](C)C(N)=O)NC(=O)[C@H]([C@@H](C)O)NC(=O)[C@H](C(C)C)NC1=O` [Compound 1279] ({CH2CO}-NYDWV[Bip]V[dP][dL][Dab]LVTCA-NH2; thioether N-14), the IC50 was found to be 0.02 µM.

As to `Cc1cccc(C[C@@H]2NC(=O)[C@H](CC(=O)O)NC(=O)[C@H](Cc3ccc(OCC(=O)O)cc3)NC(=O)[C@H](Cc3ccc(OCC(=O)O)cc3)NC(=O)CSC[C@@H](C(=O)N[C@@H](C)C(N)=O)NC(=O)[C@H](CO)NC(=O)[C@H](Cc3ccccc3)NC(=O)[C@H](CC(C)C)NC(=O)[C@H](CC(N)=O)NC(=O)[C@@H](CC(C)C)NC(=O)[C@H](C)N(C)C(=O)[C@H](Cc3ccccc3)NC(=O)[C@H](Cc3ccc(-c4ccccc4)cc3)NC(=O)[C@H](CC(C)C)NC2=O)c1` [Compound 1587] ({CH2CO}-Y(Carboxymethyl)Y(Carboxymethyl)D[Phe(3-Me)]L[Bip]F[NMeA][dL]NLFSCA-NH2; thioether N-14), the IC50 was found to be 0.7 µM.

Take `CC(C)C[C@@H]1NC(=O)[C@H](Cc2c[nH]c3ccccc23)NC(=O)[C@H](CC(=O)O)NC(=O)[C@H](Cc2ccc(O)cc2)NC(=O)[C@H](Cc2ccccc2)NC(=O)CSC[C@@H](C(=O)NCC(N)=O)NC(=O)[C@H](CO)NC(=O)[C@H](C(C)C)NC(=O)[C@H](CC(C)C)NC(=O)[C@H](CCN)NC(=O)[C@@H](C)NC(=O)[C@H](C)N(C)C(=O)[C@H](C(C)C)NC(=O)[C@H](Cc2ccc(-c3ccccc3)cc2)NC1=O` [Compound 1479] ({CH2CO}-FYDWL[Bip]V[NMeA][dA][Dab]LVSCG-NH2; thioether N-14): the IC50 was 0.02 µM.

Regarding `CC(C)C[C@@H]1NC(=O)[C@H](CCN)NC(=O)[C@@H](CC(C)C)NC(=O)[C@H](C)N(C)C(=O)[C@H](CCCNC(N)=O)NC(=O)[C@H](Cc2ccc(-c3ccccc3)cc2)NC(=O)[C@H](C(C)C)NC(=O)[C@H](Cc2c[nH]c3ccccc23)NC(=O)[C@H](CC(=O)O)NC(=O)[C@H](Cc2ccc(C(=O)O)cc2)NC(=O)[C@H](CN)NC(=O)CSC[C@@H](C(=O)N[C@@H](C)C(N)=O)NC(=O)[C@H]([C@@H](C)O)NC(=O)[C@H](C(C)C)NC1=O` [Compound 1404] ({CH2CO}-[Dap][Phe(4-COOH)]DWV[Bip][Cit][NMeA][dL][Dab]LVTCA-NH2; thioether N-14), the IC50 came to 0.12 µM.

For the compound `CCC(C)[C@@H]1NC(=O)[C@H](Cc2ccc(-c3ccccc3)cc2)NC(=O)[C@H](C(C)C)NC(=O)[C@H](Cc2c[nH]c3ccccc23)NC(=O)[C@H](CC(=O)O)NC(=O)[C@H](Cc2ccc(O)cc2)NC(=O)[C@H](Cc2ccncc2)NC(=O)CSC[C@@H](C(=O)N[C@@H](CN)C(N)=O)NC(=O)[C@H](C(C)O)NC(=O)[C@H](C(C)C)NC(=O)[C@H](CC2CCCCC2)NC(=O)[C@H](CC(N)=O)NC(=O)[C@@H](CC(C)C)NC(=O)[C@H](C)N(C)C1=O` (stereo partly drawn) [Compound 2157] ({CH2CO}-[4Pal]YDWV[Bip][Ile(3ξ)][NMeA][dL]N[Cha]V[Thr(3ξ)]C[Dap]-NH2; thioether N-14), the IC50 is 0.04 µM.

On to `Cc1cccc(C[C@@H]2NC(=O)[C@H](CC(=O)O)NC(=O)[C@H](Cc3ccc(OCC(=O)O)cc3)NC(=O)[C@H](CCCNC(=O)C3CC3)NC(=O)CSC[C@@H](C(=O)N[C@@H](CO)C(N)=O)NC(=O)[C@H](CO)NC(=O)[C@H](C(C)O)NC(=O)C(CC3CCCCC3)NC(=O)[C@H](CCCNC(=N)N)NC(=O)[C@@H](CC(C)C)NC(=O)[C@H](C)N(C)C(=O)[C@H](CCCNC(N)=O)NC(=O)[C@H](Cc3ccc(-c4ccccc4)cc3)NC(=O)[C@H](C(C)C)NC2=O)c1` (stereo partly drawn) [Compound 2113] ({CH2CO}-[Orn](Cyclopropanecarbonyl)Y(Carboxymethyl)D[Phe(3-Me)]V[Bip][Cit][NMeA][dL]R[ξCha][Thr(3ξ)]SCS-NH2; thioether N-14), for which the IC50 was determined as 0.02 µM.

As for `CC(C)C[C@@H]1NC(=O)[C@H](Cc2c[nH]c3ccccc23)NC(=O)[C@H](CC(=O)O)NC(=O)[C@H](Cc2ccncc2)NC(=O)[C@H](Cc2ccc(OCC(=O)O)cc2)NC(=O)CSC[C@@H](C(=O)N[C@@H](CC(N)=O)C(N)=O)NC(=O)[C@H](CO)NC(=O)[C@H](C(C)C)NC(=O)[C@H](CC2CCCCC2)NC(=O)[C@H](CCN)NC(=O)[C@@H](CC(C)C)NC(=O)[C@H](C)N(C)C(=O)[C@H](Cc2ccc(O)cc2)NC(=O)[C@H](Cc2ccc(-c3ccccc3)cc2)NC1=O` [Compound 1906] ({CH2CO}-Y(Carboxymethyl)[4Pal]DWL[Bip]Y[NMeA][dL][Dab][Cha]VSCN-NH2; thioether N-14), the IC50 came out at 0.05 µM.

Consider `CC(C)C[C@@H]1NC(=O)[C@H](Cc2c[nH]c3ccccc23)NC(=O)[C@H](CC(=O)O)NC(=O)[C@H](Cc2ccc(O)cc2)NC(=O)[C@H](Cc2ccccc2)NC(=O)CSC[C@@H](C(=O)N[C@@H](C)C(N)=O)NC(=O)[C@H](CO)NC(=O)[C@H](C(C)C)NC(=O)[C@H](CC(C)C)NC(=O)[C@H](CCCCN)NC(=O)[C@@H](C)NC(=O)[C@H](C)N(C)C(=O)[C@H](C(C)C)NC(=O)[C@H](Cc2ccc(-c3ccccc3)cc2)NC1=O` [Compound 1748] ({CH2CO}-FYDWL[Bip]V[NMeA][dA]KLVSCA-NH2; thioether N-14), for which the IC50 is 0.02 µM.

Regarding `CC(C)C[C@@H]1NC(=O)[C@H](Cc2c[nH]c3ccccc23)NC(=O)[C@H](CC(=O)O)NC(=O)[C@H](Cc2ccc(O)cc2)NC(=O)[C@H](Cc2ccccc2)NC(=O)CSC[C@@H](C(=O)N[C@@H](C)C(N)=O)NC(=O)[C@H](CO)NC(=O)[C@H](C(C)C)NC(=O)[C@H](CC(C)C)NC(=O)[C@H](CCN)NC(=O)[C@@H](C)NC(=O)[C@H](C)N(C)C(=O)[C@H](CCCNC(=N)N)NC(=O)[C@H](Cc2ccc(-c3ccccc3)cc2)NC1=O` [Compound 1751] ({CH2CO}-FYDWL[Bip]R[NMeA][dA][Dab]LVSCA-NH2; thioether N-14), the concentration for half-maximal inhibition (IC50) is 0.03 µM.

As for `CC(C)C[C@@H]1NC(=O)[C@H](CCCCN)NC(=O)[C@@H](CC(C)C)NC(=O)[C@H](C)N(C)C(=O)[C@H](CCCNC(N)=O)NC(=O)[C@H](Cc2ccc(-c3ccccc3)cc2)NC(=O)[C@H](C(C)C)NC(=O)[C@H](Cc2c[nH]c3ccccc23)NC(=O)[C@H](CC(=O)O)NC(=O)[C@H](Cc2ccc(O)cc2)NC(=O)[C@H](CC(N)=O)NC(=O)CSC[C@@H](C(=O)NCC(N)=O)NC(=O)[C@H]([C@@H](C)O)NC(=O)[C@H](C(C)C)NC1=O` [Compound 1475] ({CH2CO}-NYDWV[Bip][Cit][NMeA][dL]KLVTCG-NH2; thioether N-14), the IC50 turned out to be 0.05 µM.

Consider `CC(C)C[C@@H]1NC(=O)[C@H](CCN)NC(=O)[C@@H](CC(C)C)NC(=O)[C@H](C)N(C)C(=O)[C@H](CCCNC(N)=O)NC(=O)[C@H](Cc2ccc(-c3ccccc3)cc2)NC(=O)[C@H](C(C)C)NC(=O)[C@H](Cc2c[nH]c3ccccc23)NC(=O)[C@H](CC(=O)O)NC(=O)[C@H](Cc2ccc(CN)cc2)NC(=O)[C@H](CC(N)=O)NC(=O)CSC[C@@H](C(=O)N[C@@H](C)C(N)=O)NC(=O)[C@H]([C@@H](C)O)NC(=O)[C@H](C(C)C)NC1=O` [Compound 1322] ({CH2CO}-N[Phe(4-CH2NH2)]DWV[Bip][Cit][NMeA][dL][Dab]LVTCA-NH2; thioether N-14), for which the IC50 came out at 0.02 µM.

As for `CC(C)C[C@@H]1NC(=O)[C@H](CCCCN)NC(=O)[C@@H](CC(C)C)NC(=O)[C@H](C)N(C)C(=O)[C@H](CCCNC(=N)N)NC(=O)[C@H](Cc2ccc(-c3ccccc3)cc2)NC(=O)[C@H](C(C)C)NC(=O)[C@H](Cc2c[nH]c3ccccc23)NC(=O)[C@H](CC(=O)O)NC(=O)[C@H](Cc2ccc(O)cc2)NC(=O)[C@H](CC(N)=O)NC(=O)CSC[C@@H](C(=O)N[C@@H](CO)C(N)=O)NC(=O)[C@H]([C@@H](C)O)NC(=O)[C@H](C(C)C)NC1=O` [Compound 1174] ({CH2CO}-NYDWV[Bip]R[NMeA][dL]KLVTCS-NH2; thioether N-14), the IC50 amounted to 0.06 µM.

What is called IC50 is the midpoint of a concentration-inhibition curve.
